Data from article PMC10065799, “High-throughput profiling of sequence recognition by tyrosine kinases and SH2 domains using bacterial peptide display” (eLife, 2023).
Values belong to the sequence of their own block, whether it stands above or below them.

Tests used:
Assay in all cases: pTyr-Var library bacterial peptide display kinase screen (enrichment scores)
c-Src kinase domain = c-Src kinase domain (Homo sapiens, UniProt P12931); format: biochemical; conditions: sheet "Src";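 note: log2 fold change in enrichment of variant over reference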
c-Abl kinase domain = target: T1, c-Abl kinase domain (Mus musculus, UniProt P00520); format: biochemical;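 note: log2 fold change in enrichment of variant over reference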
T1 sequence (P00520 242-493 limits assumed): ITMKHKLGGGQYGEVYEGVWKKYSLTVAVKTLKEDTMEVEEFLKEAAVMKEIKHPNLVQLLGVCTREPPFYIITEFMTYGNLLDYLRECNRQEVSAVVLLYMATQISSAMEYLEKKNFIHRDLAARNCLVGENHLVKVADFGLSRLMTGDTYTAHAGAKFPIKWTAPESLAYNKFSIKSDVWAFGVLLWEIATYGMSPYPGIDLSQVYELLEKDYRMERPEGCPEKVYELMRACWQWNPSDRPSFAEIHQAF

EPHB1 kinase domain = format: biochemical, human; conditions: for Screen: sheet EPHB1, effect of the variant peptide relative to its reference peptide in the pTyr-Var library screen (enrichment scores); for Screen (variant relative to reference peptide, measured in the pTyr-Var library screen): sheet "EPHB1", variant seq vs reference seq, bacterial peptide display enrichment
Fer kinase domain = format: biochemical, mouse; conditions: sheet "Fer"
EPHB2 kinase domain = format: biochemical, human; conditions: sheet EPHB2
[1] = variant peptide versus its reference peptide in the pTyr-Var library screen
[2] = fig5-data2, sheet "Abl", Screen for the variant/reference peptide pair, pTyr-Var library
[3] = value of the variant peptide against its reference peptide in the pTyr-Var library screen with Fer
[4] = effect of the variant peptide relative to its reference peptide in the pTyr-Var library screen
[5] = effect of variant peptide relative to its reference peptide in the pTyr-Var library screen (enrichment scores)
[6] = variant peptide relative to its reference peptide, pTyr-Var library screen enrichment
[7] = sheet "Abl", effect of variant peptide relative to its reference peptide in pTyr-Var library screen (enrichment)

Sequence: PLDGEYFTLRI [TP53_Y327_Q331R]
Screen (c-Src kinase domain; [1]): -0.2935

Sequence: PESIMYWKFTT [NTRK3_Y744_R745W]
Screen (c-Src kinase domain; [1]): 2.713
Screen (Fer kinase domain; [3]): 1.613

Sequence: MGGSLYFSFPD [HIKESHI_Y55_V54L_YF]
Screen (c-Src kinase domain; [4]): 0.1907
Screen (EPHB1 kinase domain): 2.816
Screen (EPHB2 kinase domain; [5]): 2.441

Sequence: QGCGIYKDFFR [PLA2G2D_Y82_S80G_YF]
Screen (c-Src kinase domain; [1]): -0.1018

Sequence: NTVDFYDLFGG [PTPN11_Y63_G60V_YF]
Screen (c-Src kinase domain; [1]): -0.792
Screen (Fer kinase domain; [6]): -0.946

Sequence: ADARMYGVLPR [PLP1_Y207_W212R]
Screen (c-Src kinase domain; [1]): -3.205
Screen (EPHB2 kinase domain; [5]): -2.437

Sequence: DFFDLYGGEKL [PTPN11_Y66_F71L_YF]
Screen (c-Src kinase domain; [1]): 0.4429
Screen (c-Abl kinase domain; [2]): -1.348

Sequence: VITTLYIGFLG [KCNQ1_Y267_L262V]
Screen (c-Src kinase domain; [4]): -0.844

Sequence: KFEDVYVRICL [B3GALNT1_Y269_G271R]
Screen (c-Src kinase domain; [4]): -2.417
Screen (Fer kinase domain; [3]): -2.092

Sequence: LITILYIGFLG [KCNQ1_Y267_T265I]
Screen (c-Src kinase domain; [4]): -1.468

Sequence: DLDFTYIFPNI [PTEN_Y27_L25F_YF]
Screen (c-Src kinase domain; [1]): -0.8557
Screen (EPHB1 kinase domain): -1.115

Sequence: RRIHSYRRHLW [VHL_Y112_G114R]
Screen (c-Src kinase domain; [1]): -2.73
Screen (variant relative to reference peptide, measured in the pTyr-Var library screen) (EPHB1 kinase domain): -1.158

Sequence: SDVDLYQVRIA [PSMD9_Y70_T74I]
Screen (c-Src kinase domain; [1]): 0.1663

Sequence: NTADFYDLFGG [PTPN11_Y63_G60A_YF]
Screen (c-Src kinase domain; [1]): -0.001161
Screen (Fer kinase domain; [6]): -0.1929

Sequence: PFAEPYADFGG [APBA1_Y187_S184A_YF]
Screen (c-Src kinase domain; [4]): -0.451

Sequence: CEETFYTMKMN [MASP2_Y401_V405M]
Screen (c-Src kinase domain; [4]): 0.9168

Sequence: FKEIVYAVSSD [DCX_Y70_G67E]
Screen (c-Src kinase domain; [4]): 2.95

Sequence: DCAAIYGNEPD [AKR1A1_Y50_E55D]
Screen (c-Src kinase domain; [4]): 0.2268

Sequence: SILAVYSKDIF [PANK2_Y400_N404I_YF]
Screen (c-Src kinase domain; [1]): -0.2771

Sequence: DFCDLYGGEKF [PTPN11_Y66_Y63C_YF]
Screen (c-Src kinase domain; [1]): -0.008516

Sequence: LITLVYGCSRQ [TMPRSS6_Y290_S288L]
Screen (c-Src kinase domain; [1]): -0.7056

Sequence: KVALVYGQMNQ [ATP5F1B_Y269_E274Q]
Screen (c-Src kinase domain; [4]): 0.6915

Sequence: PLQNTYNFNVL [SLC4A1_Y553_K551N_YF]
Screen (c-Src kinase domain; [1]): 2.669

Sequence: SVTCPYSPALN [TP53_Y126_T125P]
Screen (c-Src kinase domain; [1]): 1.73

Sequence: FQKNIYSEEPR [LMNA_Y211_L215P]
Screen (c-Src kinase domain; [4]): -0.2654

Second part, the sequence after the results:

Screen (c-Abl kinase domain; [2]): 1.832
Sequence: KSMFVYCTPNK [ATP2A2_Y497_S495F]

Screen (c-Abl kinase domain; [2]): -0.8712
Sequence: IPTPAYQSLPA [PDCD6IP_Y727_S730L]

Screen (c-Abl kinase domain; [2]): 0.412
Sequence: LEVETYRRLLD [KRT12_Y429_I426V]

Screen (EPHB1 kinase domain): -2.133
Sequence: LGSWTYPKTVS [ROS1_Y144_T145P]

Screen (c-Abl kinase domain; [2]): -1.302
Sequence: FIATQYSLCPR [LBR_Y166_R169C_YF]

Screen (c-Abl kinase domain; [2]): 0.4533
Sequence: RVFIKYLPEWT [PSEN1_Y240_L235R]

Screen (c-Abl kinase domain; [2]): -1.908
Sequence: MNLLGYRQVRS [CHST4_Y359_H361Q]

Screen (variant relative to reference peptide, measured in the pTyr-Var library screen) (EPHB1 kinase domain): -0.2975
Screen (EPHB2 kinase domain; [5]): -0.2465
Sequence: GSESDYIIMPN [SCARB1_Y133_V135I]

Screen (c-Abl kinase domain; [2]): 1.344
Sequence: RQQEVYLLFKQ [RARRES1_Y159_D158V_YF]

Screen (EPHB1 kinase domain): 0.02902
Screen (EPHB2 kinase domain; [5]): -0.167
Sequence: TSIGNYFKPWF [DHCR24_Y299_N294T_YF]

Screen (c-Abl kinase domain; [2]): -1.289
Sequence: EAIAKYDLKAT [GRB2_Y7_F9L]

Screen (c-Abl kinase domain; [2]): 1.025
Sequence: SGADSYEMEED [EGFR_Y316_C311S]

Screen (c-Abl kinase domain; [2]): 0.9615
Sequence: GVMLLYFGRFN [ADGRD1_Y85_T82M_YF]

Screen (c-Abl kinase domain; [2]): 1.089
Sequence: HVSISYDIPLT [GAB1_Y307_P311L]

Screen (EPHB1 kinase domain): -0.3671
Sequence: HRNNNYEPNLF [BRCA2_Y57_K53R]

Screen (c-Abl kinase domain; [2]): 0.8908
Sequence: LLQAEYWHDPI [PPT1_Y185_V181L]

Screen (c-Abl kinase domain; [2]): 0.7729
Sequence: KKLAEYGPQGK [CLCA1_Y147_R152K]

Screen (c-Abl kinase domain; [2]): 2.918
Sequence: KRGIDYILWHM [FRMD1_Y225_R228W]

Screen (variant relative to reference peptide, measured in the pTyr-Var library screen) (EPHB1 kinase domain): -2.938
Screen (EPHB2 kinase domain; effect of the variant relative to its reference peptide in the pTyr-Var library screen): -1.966
Sequence: TSKLSYLDPRI [TOP1_Y723_N722S]

Screen (c-Abl kinase domain; [7]): -2.393
Sequence: IEPCIYIPEDD [XPNPEP3_Y455_G453C]

Screen (c-Abl kinase domain; [2]): -0.66
Sequence: MIHSAYALGGL [CPS1_Y590_R587H]

Screen (c-Abl kinase domain; [7]): -0.1662
Sequence: KDQPDYKFQPR [SOX9_Y172_H169Q_YF]

Screen (c-Abl kinase domain; [2]): 0.402
Sequence: DRLASYLDKLR [KRT12_Y139_V143L]

Screen (c-Abl kinase domain; [7]): -3.237
Sequence: ERRLIYASDPK [VPS13D_Y864_T865A]

Screen (EPHB2 kinase domain; [5]): 0.1273
Sequence: LAIERYVVVSK [RHO_Y136_C140S]

Screen (c-Abl kinase domain; [2]): -1.897
Sequence: FSIDFYRVGGH [NTRK2_Y707_T704I_YF]
